Data from US20140000883A1, “PETROLEUM RECOVERY PROCESS AND SYSTEM” (Shell Oil Company, priority 2012, published 2014).

Columns and labels:
[1] = Extraction of mined oil sands with solvents (bitumen recovery); settings: for Recovered Bitumen: not corrected for residual solvent;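 on Recovered Bitumen: Bitumen mass includes 3 to 7 wt% residual solvent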
Experimental: The quality of dimethyl sulfide as an oil recovery agent based on the miscibility of dimethyl sulfide with a crude oil relative to other compounds was evaluated. […] Each oil sands sample was weighed and placed in a cellulose extraction thimble that was placed on a porous polyethylene support disk in a jacketed glass cylinder with a drip rate control valve. Each oil sands sample was then extracted with a selected solvent at a selected temperature (10° C. or 30° C.) in a cyclic contact and drain experiment, where the contact time ranged from 15 to 60 minutes. Fresh contacting solvent was applied and the cyclic extraction repeated until the fluid drained from the apparatus became pale brown in color.
The extracted fluids were stripped of solvent using a rotary evaporator and thereafter vacuum dried to remove residual solvent. […] The residual solids and extraction thimble were air dried, weighed, and then vacuum dried. […] Collectively, the weight of the solid or sample and thimble recovered after extraction plus the quantity of bitumen recovered after extraction divided by the weight of the initial oil sands sample plus the thimble provide the mass closure for the extractions.

[2] = SARA analysis of extracted bitumen samples; settings: bitumen extracted at 30° C.
Experimental: The bitumen samples extracted at 30° C. from each oil sands sample were evaluated by SARA analysis to determine the saturates, aromatics, resins, and asphaltenes composition of the bitumen samples extracted by each solvent.

[3] = Viscosity of crude blended with dimethyl sulfide (rheometer); format: physicochemical
Experimental: The quality of dimethyl sulfide as an oil recovery agent based on the crude oil viscosity lowering properties of dimethyl sulfide was evalulated. Three crude oils having widely disparate viscosity characteristics—an African Waxy crude, a Middle Eastern asphaltic crude, and a Canadian asphaltic crude—were blended with dimethyl sulfide.
A control sample of each crude was prepared containing no dimethyl sulfide, and samples of each crude were prepared and blended with dimethyl sulfide to prepare crude samples containing increasing concentrations of dimethyl sulfide. Each sample of each of the crudes was heated to 60° C. to dissolve any waxes therein and to permit weighing of a homogeneous liquid, weighed, allowed to cool overnight, then blended with a selected quantity of dimethyl sulfide. The samples of the crude/dimethyl sulfide blend were then heated to 60° C. and mixed to ensure homogeneous blending of the dimethyl sulfide in the samples. Absolute (dynamic) viscosity measurements of each of the samples were taken using a rheometer and closed cup sensor assembly. Viscosity measurements of each of the samples of the West African waxy crude and the Middle Eastern asphaltic crude were taken at 20° C., 40° C., 60° C., 80° C., and then again at 20° C. after cooling from 80° C., where the second measurement at 20° C. is taken to measure the viscosity without the presence of waxes since wax formation occurs slowly enough to permit viscosity measurement at 20° C. without the presence of wax. Viscosity measurements of each of the samples of the Canadian asphaltic crude were taken at 5° C., 10° C., 20° C., 40° C., 60° C., 80° C., The measured viscosities for each of the crudes are shown in Tables 4, 5, and 6 below.

Viscosity ([3]; DMS 1.21 wt. %, 20° C.): 125.8 mPa s | Viscosity ([3]; DMS 1.21 wt. %, 20° C. after cooling from 80° C.): 100.1 mPa s | Viscosity ([3]; DMS 1.21 wt. %, 40° C.): 30.94 mPa s | Viscosity ([3]; DMS 1.21 wt. %, 60° C.): 14.66 mPa s | Viscosity ([3]; DMS 1.21 wt. %, 80° C.): 8.92 mPa s | Viscosity ([3]; DMS 1.3 wt. %, 20° C.): 1733.8 mPa s | Viscosity ([3]; DMS 1.3 wt. %, 20° C. after cooling from 80° C.): 1624.8 mPa s | Viscosity ([3]; DMS 1.3 wt. %, 40° C.): 334.5 mPa s | Viscosity ([3]; DMS 1.3 wt. %, 60° C.): 106.7 mPa s | Viscosity ([3]; DMS 1.3 wt. %, 80° C.): 44.6 mPa s | Viscosity ([3]; DMS 2.48 wt. %, 20° C.): 122.3 mPa s | Viscosity ([3]; DMS 2.48 wt. %, 20° C. after cooling from 80° C.): 89.23 mPa s | Viscosity ([3]; DMS 2.48 wt. %, 40° C.): 30.53 mPa s | Viscosity ([3]; DMS 2.48 wt. %, 60° C.): 13.66 mPa s | Viscosity ([3]; DMS 2.48 wt. %, 80° C.): 8.44 mPa s | Viscosity ([3]; DMS 2.6 wt. %, 20° C.): 1026.6 mPa s | Viscosity ([3]; DMS 2.6 wt. %, 20° C. after cooling from 80° C.): 881.1 mPa s | Viscosity ([3]; DMS 2.6 wt. %, 40° C.): 219.9 mPa s | Viscosity ([3]; DMS 2.6 wt. %, 60° C.): 76.5 mPa s | Viscosity ([3]; DMS 2.6 wt. %, 80° C.): 34.3 mPa s | Viscosity ([3]; DMS 5.03 wt. %, 20° C.): 78.37 mPa s | Viscosity ([3]; DMS 5.03 wt. %, 20° C. after cooling from 80° C.): 55.21 mPa s | Viscosity ([3]; DMS 5.03 wt. %, 40° C.): 20.24 mPa s | Viscosity ([3]; DMS 5.03 wt. %, 60° C.): 10.45 mPa s | Viscosity ([3]; DMS 5.03 wt. %, 80° C.): 6.55 mPa s | Viscosity ([3]; DMS 5.3 wt. %, 20° C.): 496.5 mPa s | Viscosity ([3]; DMS 5.3 wt. %, 20° C. after cooling from 80° C.): 503.5 mPa s | Viscosity ([3]; DMS 5.3 wt. %, 40° C.): 134.2 mPa s | Viscosity ([3]; DMS 5.3 wt. %, 60° C.): 52.2 mPa s | Viscosity ([3]; DMS 5.3 wt. %, 80° C.): 25.5 mPa s | Viscosity ([3]; DMS 7.6 wt. %, 20° C.): 288.0 mPa s | Viscosity ([3]; DMS 7.60 wt. %, 20° C.): 60.92 mPa s | Viscosity ([3]; DMS 7.6 wt. %, 20° C. after cooling from 80° C.): 290.0 mPa s | Viscosity ([3]; DMS 7.60 wt. %, 20° C. after cooling from 80° C.): 40.89 mPa s | Viscosity ([3]; DMS 7.6 wt. %, 40° C.): 89.4 mPa s | Viscosity ([3]; DMS 7.60 wt. %, 40° C.): 17.08 mPa s | Viscosity ([3]; DMS 7.6 wt. %, 60° C.): 37.4 mPa s | Viscosity ([3]; DMS 7.60 wt. %, 60° C.): 9.29 mPa s | Viscosity ([3]; DMS 7.6 wt. %, 80° C.): 19.3 mPa s | Viscosity ([3]; DMS 7.60 wt. %, 80° C.): 6.09 mPa s | Viscosity ([3]; DMS 8.01 wt. %, 20° C.): 5799 mPa s | Viscosity ([3]; DMS 8.01 wt. %, 40° C.): 982 mPa s | Viscosity ([3]; DMS 8.01 wt. %, 60° C.): 275 mPa s | Viscosity ([3]; DMS 8.01 wt. %, 80° C.): 106 mPa s | Viscosity ([3]; DMS 9.80 wt. %, 20° C.): 2760 mPa s | Viscosity ([3]; DMS 9.80 wt. %, 40° C.): 571 mPa s | Viscosity ([3]; DMS 9.80 wt. %, 60° C.): 173 mPa s | Viscosity ([3]; DMS 9.80 wt. %, 80° C.): 73 mPa s | Viscosity ([3]; DMS 9.95 wt. %, 20° C.): 44.70 mPa s | Viscosity ([3]; DMS 9.95 wt. %, 20° C. after cooling from 80° C.): 30.61 mPa s | Viscosity ([3]; DMS 9.95 wt. %, 40° C.): 13.03 mPa s | Viscosity ([3]; DMS 9.95 wt. %, 60° C.): 7.58 mPa s | Viscosity ([3]; DMS 9.95 wt. %, 80° C.): 5.04 mPa s | Viscosity ([3]; DMS 10.1 wt. %, 20° C.): 150.0 mPa s | Viscosity ([3]; DMS 10.1 wt. %, 20° C. after cooling from 80° C.): 150.5 mPa s | Viscosity ([3]; DMS 10.1 wt. %, 40° C.): 52.4 mPa s | Viscosity ([3]; DMS 10.1 wt. %, 60° C.): 24.5 mPa s | Viscosity ([3]; DMS 10.1 wt. %, 80° C.): 13.5 mPa s | Viscosity ([3]; DMS 14.81 wt. %, 5° C.): 1794 mPa s | Viscosity ([3]; DMS 14.81 wt. %, 10° C.): 1155 mPa s | Viscosity ([3]; DMS 14.81 wt. %, 20° C.): 548 mPa s | Viscosity ([3]; DMS 14.81 wt. %, 40° C.): 159 mPa s | Viscosity ([3]; DMS 14.81 wt. %, 60° C.): 64 mPa s | Viscosity ([3]; DMS 14.81 wt. %, 80° C.): 32 mPa s | Viscosity ([3]; DMS 15.13 wt. %, 20° C.): 23.96 mPa s | Viscosity ([3]; DMS 15.13 wt. %, 20° C. after cooling from 80° C.): 17.64 mPa s | Viscosity ([3]; DMS 15.13 wt. %, 40° C.): 8.32 mPa s | Viscosity ([3]; DMS 15.13 wt. %, 60° C.): 4.97 mPa s | Viscosity ([3]; DMS 15.13 wt. %, 80° C.): 3.38 mPa s | Viscosity ([3]; DMS 15.2 wt. %, 20° C.): 59.4 mPa s | Viscosity ([3]; DMS 15.2 wt. %, 20° C. after cooling from 80° C.): 60.7 mPa s | Viscosity ([3]; DMS 15.2 wt. %, 40° C.): 25.2 mPa s | Viscosity ([3]; DMS 15.2 wt. %, 60° C.): 13.6 mPa s | Viscosity ([3]; DMS 15.2 wt. %, 80° C.): 8.2 mPa s | Viscosity ([3]; DMS 19.30 wt. %, 20° C.): 15.26 mPa s | Viscosity ([3]; DMS 19.30 wt. %, 20° C. after cooling from 80° C.): 12.06 mPa s | Viscosity ([3]; DMS 19.30 wt. %, 40° C.): 6.25 mPa s | Viscosity ([3]; DMS 19.30 wt. %, 60° C.): 4.05 mPa s | Viscosity ([3]; DMS 19.30 wt. %, 80° C.): 2.92 mPa s | Viscosity ([3]; DMS 19.78 wt. %, 20° C.): 188 mPa s | Viscosity ([3]; DMS 19.78 wt. %, 40° C.): 69 mPa s | Viscosity ([3]; DMS 19.78 wt. %, 60° C.): 33 mPa s | Viscosity ([3]; DMS 19.78 wt. %, 80° C.): 19 mPa s | Viscosity ([3]; DMS 20.1 wt. %, 20° C.): 29.9 mPa s | Viscosity ([3]; DMS 20.1 wt. %, 20° C. after cooling from 80° C.): 31.0 mPa s | Viscosity ([3]; DMS 20.1 wt. %, 40° C.): 14.8 mPa s | Viscosity ([3]; DMS 20.1 wt. %, 60° C.): 8.7 mPa s | Viscosity ([3]; DMS 20.1 wt. %, 80° C.): 5.7 mPa s | Viscosity ([3]; DMS 29.88 wt. %, 5° C.): 113 mPa s | Viscosity ([3]; DMS 29.88 wt. %, 10° C.): 81 mPa s | Viscosity ([3]; DMS 29.88 wt. %, 20° C.): 51 mPa s | Viscosity ([3]; DMS 29.88 wt. %, 40° C.): 22 mPa s | Viscosity ([3]; DMS 29.88 wt. %, 60° C.): 13 mPa s | Viscosity ([3]; DMS 29.88 wt. %, 80° C.): 8 mPa s | Viscosity ([3]; DMS 39.61 wt. %, 5° C.): 23 mPa s | Viscosity ([3]; DMS 39.61 wt. %, 10° C.): 20 mPa s | Viscosity ([3]; DMS 39.61 wt. %, 20° C.): 14 mPa s | Viscosity ([3]; DMS 39.61 wt. %, 40° C.): 8 mPa s | Viscosity ([3]; DMS 39.61 wt. %, 60° C.): 6 mPa s | Viscosity ([3]; DMS 39.61 wt. %, 80° C.): 4 mPa s
SMILES: CSC [Dimethyl Sulfide, dimethyl sulfide]
recovering bitumen from an oil sand material, compared with the best known fluids ([1]; 10° C. and 30° C.): comparable | Weight Change ([1]; extraction at 10 C.): 16.9 g | Recovered Bitumen ([1]; extraction at 10 C.): 16.55 g | Weight Change ([1]; extraction at 30 C.): 16.7 g | Recovered Bitumen ([1]; extraction at 30 C.): 16.29 g | extraction of / miscibility with asphaltenes [2]: excellent miscibility properties | lowering the viscosity of a crude oil ([3]; three crudes, wide range of initial viscosities): effective for significantly lowering the viscosity
